According to patent US8946397B1, “Tagged nucleosides that leave no scar upon cleavage” (priority 2011, dated 2015):
Like-named read-outs stand apart in the source and are kept apart here.

Key:
[1] = cited from earlier work
[2] = Elimination of scar from triphosphate-aldehyde, analyzed by ion-exchange HPLC; type: physicochemical; conditions: 55° C.
Procedure: To develop the reagents for elimination of scar triphosphate-aldehyde which was obtained from the treatment of compound 17 with 10 mM NaIO4 was used as model compound. A variety of conditions were explored that might eliminate the scar and the reaction was analyzed by ion-exchange HPLC (buffer A: water; buffer B: 1M NH4HCO3; gradient 0˜35% B over 20 min).

[3] = system: DNA polymerases and reverse transcriptases; assay: Standing start primer-extension assay; type: biochemical
Procedure: FIG. 8. […] Subsequent removal of the side chain allows primer extension to continue. […] Incubation is for 2 min with the template primer combination.
(§1) Thirteen DNA polymerases and reverse transcriptases performing well last time were tested again for their abilities to incorporate the triphosphate carrying a Bodipy 576/589 fluor (FIG. 6). The incubation time was extended to 30 min to see the boundaries for the enzymes to still consume all the primer s without leading to N+2 bands.
(§2) Gamma-^32P-labeled primer (2.5 pmol), cold primer (22.5 pmol) and template (30 pmol) were annealed by incubation at 95° C. for 5 min in various reaction buffer and slowly cooled to room temperature, followed by the addition of various DNA polymerase and reverse transcriptases. The extension was initiated by adding MJK's nucleoside triphosphates (MJ-008-065) (final concentration of 100 μM). After 30 min, the reaction was quenched by 10 mM EDTA in formamide loading buffer (20 μL); products were resolved by 14% PAGE.

[4] = biological target: T1, Bst DNA polymerases (Geobacillus stearothermophilus, UniProt P52026); assay: Standing start primer-extension assay; type: biochemical; conditions: 30 min incubation, triphosphate 100 μM, Template AA
T1 sequence (P52026 1-876): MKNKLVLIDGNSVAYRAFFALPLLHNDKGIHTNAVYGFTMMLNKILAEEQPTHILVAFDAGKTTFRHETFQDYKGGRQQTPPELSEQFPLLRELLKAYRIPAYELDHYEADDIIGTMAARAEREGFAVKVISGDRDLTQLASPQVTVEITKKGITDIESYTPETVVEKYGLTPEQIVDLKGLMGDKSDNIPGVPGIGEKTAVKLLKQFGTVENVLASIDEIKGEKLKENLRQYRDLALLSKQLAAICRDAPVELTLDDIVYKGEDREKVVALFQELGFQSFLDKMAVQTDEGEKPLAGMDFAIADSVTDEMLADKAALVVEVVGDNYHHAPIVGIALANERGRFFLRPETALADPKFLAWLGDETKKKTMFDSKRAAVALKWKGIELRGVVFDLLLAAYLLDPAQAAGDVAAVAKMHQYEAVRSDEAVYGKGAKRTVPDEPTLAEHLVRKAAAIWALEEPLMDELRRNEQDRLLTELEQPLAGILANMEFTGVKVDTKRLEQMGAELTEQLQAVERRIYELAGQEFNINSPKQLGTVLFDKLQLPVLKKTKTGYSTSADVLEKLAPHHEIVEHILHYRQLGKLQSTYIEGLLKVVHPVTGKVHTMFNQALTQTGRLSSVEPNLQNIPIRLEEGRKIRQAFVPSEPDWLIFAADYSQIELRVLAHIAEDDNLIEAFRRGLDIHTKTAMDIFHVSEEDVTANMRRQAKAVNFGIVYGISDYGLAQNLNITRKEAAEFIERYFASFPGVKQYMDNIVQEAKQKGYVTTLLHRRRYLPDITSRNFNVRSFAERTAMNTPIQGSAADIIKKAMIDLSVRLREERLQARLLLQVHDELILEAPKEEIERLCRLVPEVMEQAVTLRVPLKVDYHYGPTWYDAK
Procedure: as §1, §2

[5] = biological target: Deep Vent (exo-) (Pyrococcus sp., UniProt Q51334, D141A/DEL493-1029/E143A); assay: Standing start primer-extension assay; type: biochemical; conditions: 30 min incubation, triphosphate 100 μM, Template AA
Procedure: as §1, §2

Chain of Deep Vent (exo-) (Q51334 other isoform, or with tags, fused parts or gaps D141A/E143A/DEL493-1029): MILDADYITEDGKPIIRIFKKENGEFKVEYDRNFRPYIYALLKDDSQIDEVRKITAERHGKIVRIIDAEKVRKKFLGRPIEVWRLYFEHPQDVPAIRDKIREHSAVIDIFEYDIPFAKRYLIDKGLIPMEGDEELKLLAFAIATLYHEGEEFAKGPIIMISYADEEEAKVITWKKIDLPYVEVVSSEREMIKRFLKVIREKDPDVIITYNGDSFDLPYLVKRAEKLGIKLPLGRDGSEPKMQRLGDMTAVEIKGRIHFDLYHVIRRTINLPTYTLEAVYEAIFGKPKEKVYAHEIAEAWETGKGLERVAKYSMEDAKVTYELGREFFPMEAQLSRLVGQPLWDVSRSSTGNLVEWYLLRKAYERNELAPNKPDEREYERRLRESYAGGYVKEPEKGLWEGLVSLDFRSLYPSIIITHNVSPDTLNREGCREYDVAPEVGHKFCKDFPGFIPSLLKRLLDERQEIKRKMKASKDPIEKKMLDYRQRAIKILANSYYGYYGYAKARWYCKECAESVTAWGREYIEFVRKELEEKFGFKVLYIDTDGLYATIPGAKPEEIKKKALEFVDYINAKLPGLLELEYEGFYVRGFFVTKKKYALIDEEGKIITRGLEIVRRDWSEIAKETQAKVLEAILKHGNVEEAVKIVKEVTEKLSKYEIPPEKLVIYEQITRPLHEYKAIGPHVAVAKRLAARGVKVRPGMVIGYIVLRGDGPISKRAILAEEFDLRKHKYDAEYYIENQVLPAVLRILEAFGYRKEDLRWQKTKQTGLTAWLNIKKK

## Nc1ncnc2c([C@@H]3O[C@H](CO)[C@@H](O)[C@H]3O)[nH]nc12 [formycin A]
[1]; deprotonation of N7
  pKa: 9.6

## O=CCCn1cc([C@H]2C[C@H](O)[C@@H](COP(=O)(O)OP(=O)(O)OP(=O)(O)O)O2)c(=O)[nH]c1=O [triphosphate-aldehyde]
[2]; A: 100 mM glycine, pH 9.0, 10 min
  % Product: 13%
[2]; A: 100 mM glycine, pH 9.0, 20 min
  % Product: 20%
[2]; A: 100 mM glycine, pH 9.0, 30 min
  % Product: 30%
[2]; A: 100 mM glycine, pH 10.0, 10 min
  % Product: 35%
[2]; A: 100 mM glycine, pH 10.0, 20 min
  % Product: 70%
[2]; A: 100 mM glycine, pH 10.0, 30 min
  % Product: 87%
[2]; A: 100 mM glycine, pH 11.0, 10 min
  % Product: 18%
[2]; A: 100 mM glycine, pH 11.0, 20 min
  % Product: 52%
[2]; A: 100 mM glycine, pH 11.0, 30 min
  % Product: 92%
[2]; B: 500 mM morpholine, pH 9.0, 10 min
  % Product: 73%
[2]; B: 500 mM morpholine, pH 9.0, 20 min
  % Product: 98%
[2]; B: 500 mM morpholine, pH 10.0, 10 min
  % Product: 70%
[2]; B: 500 mM morpholine, pH 10.0, 20 min
  % Product: 98%
[2]; B: 500 mM morpholine, pH 10.5, 10 min
  % Product: 50%
[2]; B: 500 mM morpholine, pH 10.5, 20 min
  % Product: 92%
[2]; B: 500 mM morpholine, pH 10.5, 30 min
  % Product: 99%
[2]; B: 500 mM morpholine, pH 11.2, 10 min
  % Product: 40%
[2]; B: 500 mM morpholine, pH 11.2, 20 min
  % Product: 80%
[2]; B: 500 mM morpholine, pH 11.2, 30 min
  % Product: 94%
[2]; C: 100 mM pyrrolidine, pH 9.0, 5 min
  % Product: 32%
[2]; C: 100 mM pyrrolidine, pH 9.0, 10 min
  % Product: 67%
[2]; C: 100 mM pyrrolidine, pH 10.0, 5 min
  % Product: 90%
[2]; C: 100 mM pyrrolidine, pH 10.0, 10 min
  % Product: 99%
[2]; C: 100 mM pyrrolidine, pH 11.0, 5 min
  % Product: 99%
[2]; C: 100 mM pyrrolidine, pH 11.0, 10 min
  % Product: 99%

## BODIPY 576/589 Labeled 1-(5-amino-3,4-dihydroxypentyl)-2′-deoxy-pseudouridine-5′-triphosphate [Compound 18]
[3]; 2 min incubation, no 3′-ONH2 group (FIG. 8)
  extension of a primer on a template calling for two consecutive T analogs: stops with certain of the indicated polymerases after the addition of one T analog
[3]; thirteen enzymes, 30 min incubation, triphosphate 100 μM, Template AA
  consume all the primer without leading to N+2 bands: most of the polymerases and reverse transcriptases might achieve this goal
[4]
  N+2 products: only trace amount
[5]
  N+2 products: only trace amount

## O=c1[nH]cnc2c([C@@H]3O[C@H](CO)[C@@H](O)[C@H]3O)n[nH]c12 [formycin B]
[1]; deprotonation of N7
  pKa: 10.4

## Nc1ncc([C@@H]2O[C@H](CO)[C@@H](O)[C@H]2O)c(=O)[nH]1 [pseudoisocytidine]
[1]; deprotonation of N3
  pKa: 9.0

## O=c1[nH]cc([C@@H]2O[C@H](CO)[C@@H](O)[C@H]2O)c(=O)[nH]1 [pseudouridine]
[1]; cite of deprotonation unclear
  pKa: 9.1
